Reference: patent US20250163076A1, “SYNTHESIS OF BRUTON'S TYROSINE KINASE INHIBITORS” (JANSSEN PHARMACEUTICA NV, priority 2022, published 2025)
≈ marks a conversion by molar mass, not a printed value. Like-named read-outs stand apart in the source and are kept apart here. Values belong to the compound of their own block, whether it stands above or below them.

How the values were obtained:
[1] = Human liver microsomes T1/2; format: in vitro ADME; settings: human, liver microsomes
[2] = system: anti-IgM induced B cell activation in human whole blood; assay: Human whole blood assay, anti-IgM induced B cell activation; format: cell-based; settings: anti-IgM stimulation
Experimental: (§1) The activity of Compound M was assessed in rat and human whole blood assays using anti-IgD and anti-IgM stimulation, respectively, to trigger B-cell activation via B-cell receptor.

PPB % free, rat = format: in vitro ADME; settings: plasma
PPB % free, human = settings: plasma
[3] = system: B-cell activation via B-cell receptor in rat whole blood; assay: Rat whole blood assay, anti-IgD stimulated B-cell activation; format: cell-based; settings: for IC50: Rattus norvegicus, B-cell, anti-IgD stimulation
Experimental: as §1

PPB % free, dog = format: in vitro ADME; settings: plasma
BTK = BTK (Homo sapiens, UniProt Q06187); assay: BTK covalent inhibition kinetics (KI, kinact, kinact/KI); format: biochemical; settings: for kinact/KI: read-out: kinact/KI
Experimental: The development of the structure-activity relationship was conducted by characterizing the non-covalent affinity of each inhibitor for BTK (KI) and the first order rate constant for irreversible covalent bond formation (kinact). The second order rate constant kinact/KI ratio is used to assess the covalent inhibitor potency because it is independent of incubation time and substrate concentrations (Copeland, R. A. Evaluation of Enzyme Inhibitors in Drug Discovery: a Guide for Medicinal Chemists and Pharmacologists; 2nd ed.; Wiley: Hoboken, N.J., 2013).

PPB % free, cyno = format: in vitro ADME; settings: cynomolgus monkey, plasma
[4] = Aqueous solubility at pH 2 and pH 7; format: physicochemical; settings: for Solubility: aqueous medium
Mouse CD69 cell = assay: Mouse CD69 splenocyte assay; format: cell-based
[5] = Rat oral bioavailability (% F); format: in vivo; settings: for bioavailability: in vivo, oral
[6] = human, plasma
[7] = Liver microsomes T1/2 (Table 3); format: in vitro ADME; settings: species not given
[8] = Epimerization kinetics / rotational energy barrier of atropisomers in solvents; format: physicochemical; settings: buffer, t1/2 at 100° C.
[9] = as above; format: physicochemical
Experimental: The rotational energy barrier of compound of Formula (II) atropisomers was estimated according to the method known in the art. The rotational barrier was determined in several solvents and their aqueous mixtures and the results are reported in Table 13, where an average value of 120.5 kJ mol^−1 or 28.8 kcal mol^−1, corresponding to epimerization half-lives of 63.8 and 4.0 months at 20° C. and 37° C., respectively, were obtained, placing this compound on the top segment of Class 2 atropisomers according to the classification systems known in the art. The rotational barrier is slightly influenced by the solvent and increases in the order 1-butanol<2-butanol<1-propanol<propylene carbonate. Additionally, increasing amounts of water increased substantially the rotational barrier in all solvents with the highest value obtained in 1-propanol/water 33/67 w/w % system. Unfortunately, due to the low aqueous solubility of compound of Formula (II) in water, epimerization studies could not be accurately conducted in pure water.
Enriched compound of Formula (II) of the P isomer was dissolved in the respective solvent to create a concentration of ˜1 wt % and was placed in a standard screw cap vial (1.8 mL) equipped with a magnetic stirring bar. Subsequently, the vial was placed in the heating block of a parallel reactor setup (Crystal16, Technobis B.V.) which was preheated to the desired temperature (80° C.-100° C., depending on the solvent). At given time intervals, small aliquot samples were taken in an HPLC vial, diluted, and the diastereomeric excess of the mixture was determined by an UPLC apparatus, equipped with an Acquity UPLC BEH C18 column (0.6 ml/min, gradient 10 mM ammonium acetate acetonitrile 95-5 v/v % and acetonitrile at 35° C.). The time points and corresponding decay of diastereomeric excess (d.e.) were plotted as t vs ln (1/d.e.) to determine the interconversion rate constant, rotational energy barrier and epimerization half-life at the respective solvent and temperature:
[formula] [formula] [formula] • where [P], [M] are the concentrations of the P and M isomers, respectively, ke is the interconversion rate constant (s^−1), ΔGe^‡ is the rotational energy barrier (KJ mol^−1), T is the absolute temperature, kB, h and R are the Boltzmann, Planck and universal gas constants, respectively and t1/2 is the epimerization half-life. An example of the data treatment and determination procedure for ke is shown in FIG. 9 for propylene carbonate system at 100° C.

[10] = Table 5, average of 2 independent determinations (± SD)
[11] = aqueous buffer, Table 5, pH 7, read-out: Solubility pH 7
[12] = simulated gastric fluid, Table 5, pH 2, read-out: Solubility pH 2
[13] = Table 4, average of 2 independent determinations (± SD)
[14] = aqueous buffer, Table 4, pH 7, read-out: Solubility pH 7
[15] = simulated gastric fluid, Table 4, pH 2, read-out: Solubility pH 2

Chain of BTK (Q06187 whole entry): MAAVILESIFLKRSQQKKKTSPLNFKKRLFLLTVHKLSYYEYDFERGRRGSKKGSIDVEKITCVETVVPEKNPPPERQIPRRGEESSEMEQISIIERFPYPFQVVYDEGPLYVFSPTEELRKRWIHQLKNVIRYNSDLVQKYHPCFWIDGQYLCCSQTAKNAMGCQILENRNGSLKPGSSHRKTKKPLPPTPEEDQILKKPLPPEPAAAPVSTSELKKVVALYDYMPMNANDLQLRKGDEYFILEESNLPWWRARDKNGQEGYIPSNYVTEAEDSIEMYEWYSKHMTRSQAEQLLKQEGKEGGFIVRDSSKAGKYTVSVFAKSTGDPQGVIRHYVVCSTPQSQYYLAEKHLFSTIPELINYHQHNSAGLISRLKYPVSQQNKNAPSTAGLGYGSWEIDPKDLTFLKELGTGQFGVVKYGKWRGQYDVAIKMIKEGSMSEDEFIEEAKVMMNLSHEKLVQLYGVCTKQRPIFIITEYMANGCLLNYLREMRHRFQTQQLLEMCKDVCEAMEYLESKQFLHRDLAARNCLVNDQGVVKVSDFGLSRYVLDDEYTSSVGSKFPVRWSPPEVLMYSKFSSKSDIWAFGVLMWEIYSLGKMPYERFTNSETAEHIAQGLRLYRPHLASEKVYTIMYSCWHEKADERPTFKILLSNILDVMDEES

half-life ([1]; Table 4): 0.00347 days | Ki (BTK; [13]): 27.6 nM | kinact (BTK; [13]): 0.000352 s⁻¹ | kinact/KI (BTK; Table 4): 13000 ± 1700 M⁻¹ s⁻¹ | Solubility [4, 14]: 7 µM (≈ 3.88 µg/mL) | Solubility [4, 15]: 15 µM (≈ 8.32 µg/mL)
Structure (SMILES): C=CC(=O)N1CCCC(NC(=O)c2sc3nccc4c3c2NC(=O)N4c2cnc(Oc3ccccc3)cc2C)C1 (stereo not drawn) [Compound F]

half-life ([1]; Table 4): 0.00417 days | Ki (BTK; [13]): 354 ± 29 nM | kinact (BTK; [13]): 0.000278 s⁻¹ | kinact/KI (BTK; Table 4): 786 ± 63 M⁻¹ s⁻¹ | Solubility [4, 14]: 4 µM (≈ 2.16 µg/mL) | Solubility [4, 15]: 18 µM (≈ 9.73 µg/mL)
Structure (SMILES): C=CC(=O)N1CCCC(NC(=O)c2sc3nccc4c3c2NC(=O)N4c2ccc(Oc3ccccc3)nc2)C1 (stereo not drawn) [D]

Continued, compound first:

Structure (SMILES): C=CC(=O)N[C@H]1CCC[C@H]1NC(=O)c1sc2nccc3c2c1NC(=O)N3c1cnc(CC(C)C)cc1C (single isomer, unassigned) [Compound M]
half-life ([1]; Table 5): 0.0264 days | IC50 [2]: 89 ± 12 nM | fraction unbound (PPB % free, rat): 0.037 | fraction unbound (PPB % free, human): 0.031 | IC50 [3]: 41 ± 12 nM | more potent in rat whole blood ([3]; compared to Compound A): 3 fold | fraction unbound (PPB % free, dog): 0.063 | Ki (BTK; [10]): 48.5 ± 2.9 nM | kinact (BTK; [10]): 0.000348 s⁻¹ | kinact/KI (BTK; Table 5): 7290 ± 590 M⁻¹ s⁻¹ | fraction unbound (PPB % free, cyno): 0.032 | pH 2 solubility ([4]; Table 6, pH 2): 320 μM | pH 7 solubility ([4]; Table 6, pH 7): 7 μM | Solubility [4, 11]: 7 µM (≈ 3.63 µg/mL) | Solubility [4, 12]: 320 µM (≈ 166 µg/mL) | IC50 (Mouse CD69 cell): 99 ± 68 nM

Structure (SMILES): C=CC(=O)N1CC[C@@H](NC(=O)c2sc3nccc4c3c2NC(=O)N4c2ccc(Oc3ccccc3)cc2C)C1 [Compound A]
IC50 [2]: 84 ± 39 nM | Rat % F (1 g/kg, crystalline suspension) ([5]; 1 g/kg, crystalline suspension): <1% | bioavailability ([5]; 1 g/kg, crystalline suspension, read-out: Rat % F (1 g/kg, crystalline suspension)): < 1% | bioavailability ([5]; 20% HP-β-CD solution, read-out: Rat % F (20% HP-β-CD solution)): 29.7% | IC50 [3]: 130 ± 11 nM | Ki (BTK; Table 3, average of two independent determinations (±SD)): 28.8 ± 21 nM | PPB % free [6]: 0.16% | Liver microsomes T1/2 ([7]; first of the two values printed 23/40): 0.016 days | half-life ([7]; liver microsomes, second of the two values printed 23/40): 0.0278 days | pH 2 solubility ([4]; Table 3, pH 2): <4/<4 μM | pH 7 solubility ([4]; Table 3, pH 7): <4/<4 μM | pH 2 solubility ([4]; Table 6, pH 2): <4/<4 μM | pH 7 solubility ([4]; Table 6, pH 7): <4/<4 μM

Structure (SMILES): C=CC(=O)N[C@H]1CCC[C@H]1NC(=O)c1sc2nccc3c2c1NC(=O)N3c1cnc(CC(C)C)cc1C [Formula (II), N-((1R,2S)-2-acrylamidocyclopentyl)-5-(6-isobutyl-4-methylpyridin-3-yl)-4-oxo-4,5-dihydro-3H-1-thia-3,5,8-triazaacenaphthylene-2-carboxamide]
half-life [8]: 0.0299 days | ΔG ([9]; 1-butanol): 28.49 kcal/mol | half-life ([9]; 1-butanol, t1/2 at 20° C.): 1100 days | ΔG ([9]; 1-butanol/water 85/15 w/w %): 28.68 kcal/mol | half-life ([9]; 1-butanol/water 85/15 w/w %, t1/2 at 20° C.): 1460 days | ΔG ([9]; 1-propanol): 28.7 kcal/mol | half-life ([9]; 1-propanol, t1/2 at 20° C.): 1460 days | ΔG ([9]; 1-propanol/water 33/67 w/w %): 29.09 kcal/mol | half-life ([9]; 1-propanol/water 33/67 w/w %, t1/2 at 20° C.): 3290 days | ΔG ([9]; 1-propanol/water 50/50 w/w %): 28.97 kcal/mol | half-life ([9]; 1-propanol/water 50/50 w/w %, t1/2 at 20° C.): 2560 days | ΔG ([9]; 1-propanol/water 67/33 w/w %): 28.85 kcal/mol | half-life ([9]; 1-propanol/water 67/33 w/w %, t1/2 at 20° C.): 2190 days | ΔG ([9]; 1-propanol/water 80/20 w/w %): 28.82 kcal/mol | half-life ([9]; 1-propanol/water 80/20 w/w %, t1/2 at 20° C.): 2190 days | ΔG ([9]; 2-MeTHF): 28.54 kcal/mol | half-life ([9]; 2-MeTHF, t1/2 at 20° C.): 1100 days | ΔG ([9]; 2-butanol): 28.54 kcal/mol | half-life ([9]; 2-butanol, t1/2 at 20° C.): 1100 days | ΔG ([9]; 2-butanol/water 70/30 w/w %): 28.78 kcal/mol | half-life ([9]; 2-butanol/water 70/30 w/w %, t1/2 at 20° C.): 1830 days | ΔG ([9]; 3-methyl-1-butanol): 28.39 kcal/mol | half-life ([9]; 3-methyl-1-butanol, t1/2 at 20° C.): 1100 days | ΔG ([9]; 3-methyl-1-butanol/water 91/9 w/w %): 28.61 kcal/mol | half-life ([9]; 3-methyl-1-butanol/water 91/9 w/w %, t1/2 at 20° C.): 1460 days | ΔG ([9]; Acetonitrile): 29.16 kcal/mol | half-life ([9]; Acetonitrile, t1/2 at 20° C.): 3650 days | ΔG ([9]; EA): 28.59 kcal/mol | half-life ([9]; EA, t1/2 at 20° C.): 1460 days | ΔG ([9]; EtOH): 28.99 kcal/mol | half-life ([9]; EtOH, t1/2 at 20° C.): 2560 days | ΔG ([9]; IPA): 28.87 kcal/mol | half-life ([9]; IPA, t1/2 at 20° C.): 2190 days | ΔG ([9]; IPAC): 28.73 kcal/mol | half-life ([9]; IPAC, t1/2 at 20° C.): 1830 days | ΔG ([9]; MEK): 28.8 kcal/mol | half-life ([9]; MEK, t1/2 at 20° C.): 1830 days | ΔG ([9]; MIBK): 28.54 kcal/mol | half-life ([9]; MIBK, t1/2 at 20° C.): 1100 days | ΔG ([9]; Propylene carbonate): 28.9 kcal/mol | ΔG ([9]; Toluene): 30.02 kcal/mol | half-life ([9]; buffer, t1/2 at 85° C.): 0.156 days | half-life ([9]; buffer, t1/2 at 120° C.): 0.00417 days | half-life ([9]; propylene carbonate, t1/2 at 20° C.): 2190 days | ΔG ([9]; propylene carbonate/water 93/7 w/w %): 28.94 kcal/mol | half-life ([9]; propylene carbonate/water 93/7 w/w %, t1/2 at 20° C.): 2560 days

Structure (SMILES): C=CC(=O)N1CCC(NC(=O)c2sc3nccc4c3c2NC(=O)N4c2cnc(CC(C)C)cc2C)C1 (stereo not drawn) [K]
half-life ([1]; Table 5): 0.0368 days | Ki (BTK; [10]): 2550 nM | kinact (BTK; [10]): 0.000255 s⁻¹ | kinact/KI (BTK; Table 5): 98.5 ± 12 M⁻¹ s⁻¹ | Solubility [4, 11]: 172 µM (≈ 86.8 µg/mL) | Solubility [4, 12]: > 400 µM
